Legend:
[1] = tested on: Argentine ant, Linepithema humile; assay: Knockdown/mortality of ant workers under continuous exposure on treated glazed tile; details: for Average % Mortality after 15 min / Average % Mortality after 3 hr / Average % Mortality after 21 hr: Table 34, thiamethoxam/adjuvant in acetone; for Average % Mortality after 15 min / Average % Mortality after 3 hr / Average % Mortality after 21 hr / Average % Knockdown & Mortality after 4 hr / Average % Knockdown & Mortality after 15 min: glazed tile; for toxicity / efficacy of the substance alone (summary in words): Argentine ant, treated glazed tile; for Average % Knockdown & Mortality after 4 hr / Average % Knockdown & Mortality after 15 min: continuous exposure
Experimental: (§1) Solutions of imidacloprid at 0.5% AI were prepared with and without methyl oleate @0.1, 1.0 and 5.0% in acetone. Treatments were applied using a micropipette to dispense 1 ml of test solution evenly on a 6″×6″ glazed tile. Actual coverage was about 5″×5″ (or 161 cm^2) for easy handling. Treatments were allowed to dry overnight. Ten Argentine ant workers were placed within a fluon or talc-coated PVC ring (φ7.6 cm×H 5.1 cm) under continuous exposure. A small vial filled with a cotton ball soaked in water was added as a drinking source after 3 hours. Treatments were replicated a minimum of three times. Evaluations for ant knockdown/mortality were made at various intervals and at 24 hours after exposure.
as §1, with “MATERIALS AND METHODS: Solutions” for “Solutions”, “linoleate” for “oleate”
as §1, with “MATERIALS AND METHODS: Solutions of” for “Solutions of”, “without methyl palmitate @0.1, 1.0” for “without methyl oleate @0.1, 1.0”, “after exposure. […]” for “after exposure.”

[2] = tested on: Aedes aegypti mosquito; assay: USDA Petri Dish Method, 3 min exposure to treated glazed tile; format: in vivo; details: Table 33, thiamethoxam/adjuvant in acetone, glazed tile, 3 min exposure
Experimental: (§2) Treatments were allowed to dry overnight. USDA Petri Dish Method was used as initial screening protocol. Twenty, 4-6 day old female Aedes aegypti mosquitoes were exposed to each treatment for 3 minutes and then moved to a clean untreated white paper index card. Treatments were replicated a minimum of three times. Mosquito knockdown was evaluated at various intervals through 7 hours after exposure. A small cotton ball soaked in sucrose solution was added on the screen top of the petri-dish as a drinking source. Mortality was evaluated at 24 hours after exposure.
MATERIALS AND METHODS: Solutions of resmethrin at 1 and 0.5% AI were prepared with and without adjuvant in acetone. […] USDA Petri Dish Method was used as initial screening protocol. Twenty, 4-6 day old female Aedes aegypti mosquitoes were exposed to each treatment for 3 minutes and then moved to a clean untreated white paper index card. Treatments were replicated a minimum of three times. Mosquito knockdown was evaluated at 3 minute intervals for the first 15 minutes and then at 5 minute intervals for the remainder of an hour. A small cotton ball soaked in sucrose solution was added on the screen top of the petri-dish as a drinking source. Mortality was evaluated at 24 hours after exposure.
as §2, with “6” for “7”
as §2, with “5 minute” for “various”, “for the first hour and then at 2, 4 and 6 hours.” for “through 7 hours after exposure.”
Treatments were allowed to dry overnight. USDA Petri Dish Method was used as initial screening protocol. Twenty, 4-6 day old female Aedes aegypti mosquitoes were exposed to each treatment for 3 minutes and then moved to a clean untreated white paper index card. Treatments were replicated a minimum of three times. Mosquito knockdown was evaluated at 3-5 minute intervals for the first hour. A small cotton ball soaked in sucrose solution was then added on the screen top of the petri-dish as a drinking source. Mortality was evaluated at 24 hours after exposure.
as §2, with “intervals through 2 hours after” for “intervals through 7 hours after”, “solution was then added on” for “solution was added on”
Treatments were allowed to dry overnight. USDA Petri Dish Method was used as initial screening protocol. Twenty, 4-6 day old female Aedes aegypti mosquitoes were exposed to each treatment for 3 minutes and then moved to a clean untreated white paper index card. Treatments were replicated a minimum of three times. Mosquito knockdown was evaluated at various hourly intervals. […]

[3] = tested on: Odorous House ant, Tapinoma sessile; assay: Knockdown/mortality of ant workers under continuous exposure on treated glazed tile; format: in vivo; details: Table 35, thiamethoxam/adjuvant in acetone, glazed tile
Excerpt: Actual coverage was about 5″×5″ (or 161 cm2) for easy handling. Treatments were allowed to dry overnight. […] Treatments were replicated minimum three times.
(§3) Treatments were allowed to dry overnight. […] Treatments were replicated minimum three times.
(§4) Treatments were allowed to dry overnight. […] Treatments were replicated a minimum of three times.
Treatments were allowed to dry overnight. […] Treatments were replicated minimum of three times. […] The results are shown in FIG. 84 (No adjuvant alone treatment was performed).

[4] = tested on: susceptible/normal German cockroach (Monheim strain), Blattella germanica; assay: Knockdown/mortality of male cockroaches under continuous exposure on treated glazed tile; format: in vivo; details: Table 36, thiamethoxam/adjuvant in acetone, glazed tile, Monheim strain
Experimental: Treatments were allowed to dry overnight. […] Treatments were replicated a minimum of three times. […]
Treatments were allowed to dry overnight. […] Treatments were replicated a minimum of three times. Cockroach knockdown/mortality was evaluated at 5 minute intervals for the first 60 minutes after exposure and then at 2, 18 and 24 hours.

[5] = tested on: Red Imported Fire ant (RIFA), Solenopsis invicta; assay: Knockdown/mortality of ant workers under continuous exposure on treated glazed tile; format: in vivo; details: Table 72, β-cyfluthrin study, Red Imported Fire ant; for Average % Mortality after 15 min: glazed tile, continuous exposure, adjuvant = Compound A 1% + Compound B 0.5%
Excerpt: as §3, §4

[6] = tested on: bait averse/resistant German cockroach (T-164 strain); assay: Knockdown/mortality of male cockroaches under continuous exposure on treated glazed tile; format: in vivo, Blattella germanica; details: for toxicity / efficacy of the substance alone (summary in words): German cockroach T-164, treated glazed tile; for Average % Knockdown & Mortality after 15 min: glazed tile, continuous exposure
[7] = Table 8 (Ex. 5), listed as Methyl Oleate (1%)
[8] = Table 8 (Ex. 5), listed as Methyl Oleate (5%)
[9] = Table 10 (Ex. 7), listed as Methyl Linoleate (1%)
[10] = Table 10 (Ex. 7), listed as Methyl Linoleate (5%)

Row | SMILES | Average % Mortality after 15 min [1] [%] | Average % Mortality after 3 hr [1] [%] | Average % Mortality after 21 hr [1] [%] | Average % Knockdown & Mortality after 2 hr [2] [%] | Average % Knockdown & Mortality after 3 hr [2] [%] | Average % Knockdown & Mortality after 7 hr [2] [%] | Average % Knockdown & Mortality after 24 hr [2] [%] | Average % Knockdown & Mortality after 15 min [3] [%] | Average % Knockdown & Mortality after 30 min [3] [%] | Average % Knockdown & Mortality after 60 min [3] [%] | Average % Knockdown & Mortality after 2 hr [3] [%] | Average % Knockdown & Mortality after 20 hr [3] [%] | Average % Knockdown & Mortality after 30 min [4] [%] | Average % Knockdown & Mortality after 60 min [4] [%] | Average % Knockdown & Mortality after 90 min [4] [%] | Average % Knockdown & Mortality after 3 hr [4] [%] | Average % Knockdown & Mortality after 24 hr [4] [%] | also measured
1 | CN1COCN(Cc2cnc(Cl)s2)/C1=N\[N+](=O)[O-] [Thiamethoxam (1%)] | 3 | 34 | 100 | 2 | 2 | 4 | 4 | 0 | 0 | 0 | 21 | 65 | 13 | 73 | 80 | 93 | 100 | 
2 | CC1(C)C(C=C(Cl)Cl)C1C(=O)OC(C#N)c1ccc(F)c(Oc2ccccc2)c1 (stereo not drawn) [β-cyfluthrin (.005%)] |  |  |  |  |  |  |  |  |  |  |  |  |  |  |  |  |  | Average % Mortality after 15 min [5]: 100%; Average % Mortality after 30 min [5]: 100%; Average % Mortality after 60 min [5]: 100%; Average % Mortality after 24 hr [5]: 100%
3 | CC1(C)C(C=C(Cl)Cl)C1C(=O)OC(C#N)c1ccc(F)c(Oc2ccccc2)c1 (stereo not drawn) [β-cyfluthrin (.001%)] |  |  |  |  |  |  |  |  |  |  |  |  |  |  |  |  |  | Average % Mortality after 15 min [5]: 39%; Average % Mortality after 30 min [5]: 100%; Average % Mortality after 60 min [5]: 100%; Average % Mortality after 24 hr [5]: 100%
4 | CN1COCN(Cc2cnc(Cl)s2)/C1=N\[N+](=O)[O-] [Thiamethoxam (0.01%)] | 0 | 19 | 100 | 0 | 0 | 0 | 0 | 0 | 0 | 0 | 9 | 71 | 13 | 67 | 87 | 100 | 100 | 
5 | CN1COCN(Cc2cnc(Cl)s2)/C1=N\[N+](=O)[O-] [Thiamethoxam (0.1%)] | 12 | 46 | 100 | 0 | 0 | 0 | 0 | 0 | 0 | 0 | 3 | 33 | 7 | 73 | 93 | 100 | 100 | 
6 | CCCCCCCC/C=C\CCCCCCCC(=O)OC [Methyl oleate, methyl oleate] |  |  |  |  |  |  |  |  |  |  |  |  |  |  |  |  |  | toxicity / efficacy of the substance alone (summary in words) [1]: toxic; Average % Knockdown & Mortality after 4 hr ([1]; Table 8 (Ex. 5), listed as Methyl Oleate (0.1%)): 13%; Average % Knockdown & Mortality after 15 min [1, 7]: 0%; Average % Knockdown & Mortality after 4 hr [1, 7]: 55%; Average % Knockdown & Mortality after 15 min [1, 8]: 3%; Average % Knockdown & Mortality after 4 hr [1, 8]: 100%; toxicity / efficacy of the substance alone (summary in words) [6]: at the higher rates (1 & 5%) showed delayed toxic effect; Average % Knockdown & Mortality after 15 min ([6]; Table 9 (Ex. 6), listed as Methyl Oleate (1%)): 0%; Average % Knockdown & Mortality after 15 min ([6]; Table 9 (Ex. 6), listed as Methyl Oleate (5%)): 7%
7 | CCCCC/C=C\C/C=C\CCCCCCCC(=O)OC [Methyl linoleate, methyl linoleate] |  |  |  |  |  |  |  |  |  |  |  |  |  |  |  |  |  | toxicity / efficacy of the substance alone (summary in words) [1]: at high rates (1 & 5%) was toxic; Average % Knockdown & Mortality after 4 hr ([1]; Table 10 (Ex. 7), listed as Methyl Linoleate (0.1%)): 0%; Average % Knockdown & Mortality after 15 min [1, 9]: 0%; Average % Knockdown & Mortality after 4 hr [1, 9]: 7%; Average % Knockdown & Mortality after 15 min [1, 10]: 7%; Average % Knockdown & Mortality after 4 hr [1, 10]: 67%; toxicity / efficacy of the substance alone (summary in words) [6]: toxic; Average % Knockdown & Mortality after 15 min ([6]; Table 11 (Ex. 8)): 0%
